Measurements published in patent publication US7399583B2, “Method for the identification of inhibitors of the binding of ARE-containing mRNA and a HuR protein” (Novartis AG, priority 2002, dated 2008).

What was measured:
HuR12 = biological target: T1, HuR12 (Homo sapiens, UniProt Q15717); experiment: 2D-FIDA-r anisotropy assay: titration of fluorescently labeled ARE RNA fragments against HuR12; assay type: binding; details: 2D-FIDA-r assay, RNA fragment 5'-terminally labeled with 5'-carboxy-TMR; for Kd: read-out: Kd HuR12 in nM +/- St. dev.
T1 construct: Mxe-intein-CBD tag (IMPACT-TWIN, pTWIN1) (C, cleaved yes); 2-MESNA thioester on the C-terminal carboxyl group (>95% of the material); made in house; host or cells: E. coli ER2566 (pTWIN1/HuR12)
Protocol: (§1) In a preferred embodiment an assay of the present invention is performed by use of 2 dimensional-FIDA anisotropy analysis, wherein the fluorescence anisotropy of the complex between mRNA and HuR is determined at single molecule sensitivity by extension of the microscopic confocal detection setup to two polarisation channels.
(§2) Titration of fluorescently labeled RNA fragments corresponding to the AREs of, for example, IL-2, IL-4, IL-8, Cox-2, IL-1β or TNF-α (5′-terminally labeled with 5′-carboxy-TMR and 33, 58, 26, 35, 33 and 34 nts in length, respectively), against increasing concentrations of a soluble form of recombinant full-length HuR or HuR12 is performed.
(§3) In vitro, individual AU rich elements are bound to HuR with different affinity, although they are derived from mRNA targets which are known to be associated with HuR-mediated regulation. This fragment selectivity is retained when the third RRM as well as the hinge region are missing as is the case for HuR12. […] However, the full length protein binds to all fragments with a higher affinity. The Kd is lower by an almost constant factor of 50. In contrast, the low affinity fragments (Kd for HuR12>1 μM) are no longer recognized by the full length protein at all (see TABLE 1).

[1] = biological target: T2, sfl-HuR (soluble form of full length HuR) (Homo sapiens, UniProt Q15717); experiment: 2D-FIDA-r anisotropy assay: titration of fluorescently labeled ARE RNA fragments against sfl-HuR; assay type: binding; details: 2D-FIDA-r assay, RNA fragment 5'-terminally labeled with 5'-carboxy-TMR; for Kd: read-out: Kd sfl-HuR in nM +/- St. dev.
T2 construct: made in house; host or cells: E. coli ER2566
Protocol: as §1, §2, §3

[2] = Solubility: no aggregation and precipitation in aqueous buffer (size exclusion chromatography and/or UV-spectroscopy); assay type: physicochemical; details: aqueous buffer of physiological pH; for concentration at which no aggregation and precipitation is seen: spectroscopy-compatible conditions
Protocol: The concentration of protein used in an assay of the present invention depends on the binding affinity between a specific mRNA (fragment) and HuR, e.g. the protein concentration used in an assay of the present invention may be lower in case there is a high binding affinity between the two species or vice versa. Solvent include aqueous solvent, e.g. buffer solution, e.g. aqueous physiological buffer solution.
Expression of the cloned HuR-Intein-CBD fusion protein is induced by addition of 1 mM IPTG to a bacterial culture grown to late-logarithmic phase in LB broth medium and allowed to proceed for 6 hours at 28°. The bacterial cells are lysed by successive freezing/thawing cycles in a buffer of 20 mM Tris/Cl pH 8.0, 800 mM NaCl, 1 mM EDTA and 0.2% Pluronic F-127 (Molecular Probes). After DNA digestion, the bacterial lysates are cleared by ultracentrifugation and the fusion protein is captured onto chitin agarose beads (New England Biolabs) via the CBD. After extensive washing of the beads with lysis buffer, the recombinant protein is recovered by thiol-induced on-column self-splicing of the intein tag by addition of Na-2-MESNA to a final concentration of 50 mM and incubation for 12 hours at 4°. Any co-eluted intein tag and un-cleaved fusion protein are removed from the eluate in a second, subtractive affinity step. […]
The quality of the purified protein is controlled by denaturing SDS-PAGE, UV-spectroscopy, analytical Size Exclusion Chromatography, RP-HPLC analysis, LC/ESI-MS analysis and CD-spectroscopy, following standard protocols as described in example 2. […] Results from UV-spectroscopy, showing no absorbance at >330 nm, and analytical size exclusion chromatography, where HuR elutes as a single peak with a maximum at 24.2 kD, provide evidence that no higher aggregation states of the protein are present at the given buffer concentrations.
The folding of the protein after the purification procedure as well as following fluorescent labeling is monitored by CD-Spectroscopy.

full length HuR = biological target: T3, full length HuR (Homo sapiens, UniProt Q15717); experiment: Deduction of the HuR binding site: affinities of RNA fragments to full length HuR
T3 construct: made in house; host or cells: E. coli ER2566
Protocol: Individual RNA fragments are synthesized and the affinities (given as Kd values) to full length HuR are determined (see TABLE 2). […] An influence of the fluorescent dye is excluded by competition experiments with unlabeled RNA fragments. […] Fragments 5, 6, 7a-7d and 8a-8c serve to tests tolerance for non-Uracil (exemplified by A=adenine) and C, respectively, at the depicted (bold and underlined) positions. […] This interaction appears to follow an all-or-nothing mechanism: While sequences with single mismatches are not recognized, sequences fulfilling this motif are bound with high affinity and an invariable Kd, Kdfund, of 0.99 nM.

T3 sequence (Q15717 whole entry, the tested form may be a part): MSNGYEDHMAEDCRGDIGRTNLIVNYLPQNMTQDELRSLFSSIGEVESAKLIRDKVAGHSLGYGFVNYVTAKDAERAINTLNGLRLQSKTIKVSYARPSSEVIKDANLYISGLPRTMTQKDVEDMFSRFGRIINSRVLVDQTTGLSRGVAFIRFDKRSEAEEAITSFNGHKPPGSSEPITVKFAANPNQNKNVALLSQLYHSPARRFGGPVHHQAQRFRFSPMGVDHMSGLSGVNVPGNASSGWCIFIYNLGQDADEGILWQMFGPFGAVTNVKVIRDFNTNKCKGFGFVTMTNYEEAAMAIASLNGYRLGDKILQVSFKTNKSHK
T2 sequence (Q15717 whole entry, the tested form may be a part): as above
T1 sequence (Q15717 2-189): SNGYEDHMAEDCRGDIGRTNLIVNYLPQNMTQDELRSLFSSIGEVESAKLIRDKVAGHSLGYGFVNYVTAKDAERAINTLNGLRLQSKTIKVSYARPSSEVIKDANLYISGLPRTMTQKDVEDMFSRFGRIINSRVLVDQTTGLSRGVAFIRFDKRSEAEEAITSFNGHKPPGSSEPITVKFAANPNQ

| Substance | Kd (HuR12) | Kd [1] | also measured |
| --- | --- | --- | --- |
| AUUUUAAUUUAUGAGUUUUUGAUAGCUUUAUUUUUUAAGUAUUUAUAUAUUUAUAA (chemistry not given here) [IL-4, synthetic RNA fragment of the IL-4 ARE, 5'-TMR labeled] | 154 nM | 3.21 nM | – |
| HuR12: HuR variant encompassing the first two RRMs, aa1-189 or aa2-189 of SEQ ID NO:1 | – | – | concentration at which no aggregation and precipitation is seen [2]: > 100 µM |
| UAUUUAUUUAAAUAUUUAAAUUUUAUAUUUAUU (chemistry not given here) [IL-2, synthetic RNA fragment of the IL-2 ARE, 5'-TMR labeled] | 498 nM | 9.5 nM | – |
| UAUUUAUUAUUUAUGUAUUUAUUUAA (chemistry not given here) [IL-8, synthetic RNA fragment of the IL-8 ARE, 5'-TMR labeled] | 42.9 nM | 1.09 nM | – |
| wild-type full length HuR: unmodified wild-type full length HuR protein | – | – | solubility in aqueous solvent (in words) ([2]; without micelle-forming detergents or glycerol, protein >0.5 μM): practically insoluble |
| UAUUAAUUUAAUUAUUUAAUAAUAUUUAUAUUAAA (chemistry not given here) [Cox-2 (2), synthetic RNA fragment of the Cox-2 ARE, 5'-TMR labeled] | 229 nM | 13.6 nM | – |
| AUUUAUUUAUUUAUUUA (chemistry not given here) [(AUUU)4A] | 126 nM | 2.09 nM | – |
| UAUUUAUUUAUUUAUUUGUUUGUUUGUUUUAUU (chemistry not given here) [IL-1β, synthetic RNA fragment of the IL-1β ARE, 5'-TMR labeled] | 18.4 nM | 0.12 nM | – |
| sfl-HuR: full-length human HuR (SEQ ID NO:1 or 2) whose C-terminal amino acid is esterified by Na-2-MESNA as a thioester | – | – | concentration at which no aggregation and precipitation is seen [2]: > 0.5 µM |
| 4a (AUUUAUUUAUUUA; chemistry not given here) | – | – | Kd (full length HuR; binding to full length HuR): 1.4 nM; Kd (in nM) (full length HuR; binding to full length HuR): not bound |
| 4c (AUUUAUUUAUUUA; chemistry not given here) | – | – | Kd (in nM) (full length HuR; binding to full length HuR): not bound |
| 4d (AUUUAUUUAUUUA; chemistry not given here) | – | – | Kd (in nM) (full length HuR; binding to full length HuR): not bound |
| UAGAGUUCAUCGCAAUUGCAC (chemistry not given here) [irrelevant seq., reference compound] | – | – | Kd HuR12 in nM +/- St. dev. (HuR12): n.b.; Kd sfl-HuR in nM +/- St. dev. [1]: n.b. |
| AUUAUUAUUAUUAUUA (chemistry not given here) [(AUU)5A] | 1590 nM | – | Kd sfl-HuR in nM +/- St. dev. [1]: n.b. |
| polyU [reference compound] | – | – | binding / recognition by HuR (in words) (full length HuR; full length HuR): bound by HuR with high affinity |
| AUUAUUUAUUAUUUAUUUAUUAUUUAUUUAUUUA (chemistry not given here) [TNF-α, synthetic RNA fragment of the TNF-α ARE, 5'-terminally labeled with 5'-carboxy-TMR] | 21.4 nM | 0.35 nM | – |
| AUUUAUUUAUUUAUUUAUUUA (chemistry not given here) [(AUUU)5A] | 23.5 nM | 0.4 nM | – |
